Where “and” joins values, the source holds several entries; their conditions need not be identical. Equal entries are not always repeated. Where two headings read alike, the source gives them in different places.
What was measured:
[1] = biological target: T1, Porcine pancreatic phospholipase A2 (Sus scrofa, UniProt P00592); assay: Phospholipase A2 inhibitory activity, method A (egg yolk lecithin substrate); type: biochemical; settings: 1,000 ppm, 37°C for 30 minutes, read-out: % inhibition of PLA2 (1,000 ppm)
T1 construct: purchased Boehringer Mannheim·Yamanouchi K.K. 161454·122416
T1 sequence (P00592 23-146): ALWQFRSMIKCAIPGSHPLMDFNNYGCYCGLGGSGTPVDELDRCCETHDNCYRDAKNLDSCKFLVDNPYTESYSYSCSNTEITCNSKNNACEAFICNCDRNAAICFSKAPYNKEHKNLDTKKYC
In short: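 Egg yolk lecithin dispersed with glycerine, Triton X-100 and CaCl2 in 50 mM Tris-HCl pH7.5 was hydrolysed by enzyme (20 ng/ml solution) with compound, 37°C, 30 min. Released free fatty acid measured by ACS-ACOD method at 540 nm; apparent enzyme level read from a standard curve to give percent inhibition.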

[2] = biological target: T1, Porcine pancreatic phospholipase A2; assay: Phospholipase A2 inhibitory activity, method B (L-α-dipalmitoylphosphatidylcholine substrate); type: biochemical; settings: 1,000 ppm, 37°C for 30 minutes, read-out: % inhibition of PLA2 (1,000 ppm)
In short: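 Substrate: L-α-dipalmitoylphosphatidylcholine/sodium cholate mixed micelles in 250 mM NaCl, 100 mM Tris-HCl pH 8.0. Enzyme (10 µg/ml stock) incubated with compound in buffer containing CaCl2 and BSA, 30 min at 37 °C. Released free fatty acid measured by ACS-ACOD at 540 nm; % inhibition derived from apparent enzyme concentration read off a standard curve.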

carrageenin edema = assay: Inhibitory activity on carrageenin edema; type: in vivo, Wistar male rats; settings: rat, paw swelling volume three hours after carrageenin; for inhibition in vivo at 100 mg/kg: dose 100 mg/kg orally; for Inhibition rate (%): dose 50 mg/kg orally
In short: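 Male Wistar rats (about 100 g, 5 per group) dosed orally at 200, 100, 50 or 25 mg/kg as 2% Tween 80 suspension or aqueous salt solution, 1 h before subplantar injection of 0.1 ml 1% λ-carrageenin. Paw swelling measured at 3 h; % inhibition versus control group mean swelling.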

[3] = Acute toxicity, intravenous injection (LD50); type: in vivo; settings: mouse, in vivo, iv, ddy male mice, sodium salt, mortality over one week
Experimental: Administration route: Intravenous injection
Using ddy male mice (body weight: 25 - 30 g), each test group consisted of 5 mice. A test compound was dissolved in the form of a sodium salt in a physiological saline or in a 5% glucose aqueous solution, and intravenously injected in an amount of 0.1 ml/10 g body weight. After the injection, the mortality rate was obtained over one week, and the median lethal dose LD50 (mg/kg) was determined.

[4] = tested on: experimental acute pancreatitis model; assay: Effects against acute pancreatitis (Test Example 7, closed duodenal loop method, gross pathological examination); type: in vivo, Crj-CD male rats; set-up: key to Pancreatic edema Distribution: -: No significant lesions; ± ∼ +++: Focal-diffuse; ± ∼ +++: Focal-diffuse; ± ∼ +++: Focal-diffuse; ± ∼ +++: Focal-diffuse; key to Pancreatic hemorrhage Petechia Grade / Pancreatic edema Grade: -: No significant lesions; ±: Minimal; +: Light; ++: Moderate; +++: Marked; settings: 50 mg per kg continuous intravenous injection, examination 6 hours after ventrotomy, individual rats
Experimental: (§1) Using Crj-CD male rats (for Compound No. 19, rats having a body weight of from 371 to 484 g were used, and for Compound No. 10, rats having a body weight of from 444 to 574 g were used), each test group consisted of 3 rats. An experimental acute pancreatitis model was prepared by a closed duodenal loop method under anesthesia with halothane (manufactured by Hoechst Japan) and nitrous oxide (manufactured by Sumitomo Seika K.K.) applied by means of a general inhalation anesthesia machine (Model EM-2 and halothane evaporator F-Model). Then, Compound No. 19 or Compound No. 10 was continuously intravenously injected into the tail vein in an amount of 50 mg per kg or 40 mg per kg, respectively, at a rate of 0.05 ml per minute by means of a pump (Technicon AA II Proportioning Pump III, manufactured by Technicon Instruments Corporation). No injection was made to a control group. Gross pathological examination was conducted upon expiration of 6 hours after the ventrotomy in the case of the test group to which Compound No. 19 was administered, or upon expiration of 3 hours after the ventrotomy in the case of the test group to which Compound No. 10 was administered. As a result, as shown in the following Table 12, the groups to which the compounds of the present invention were administered, show distinct usefulness for treating acute pancreatitis.

[5] = tested on: experimental acute pancreatitis model; assay: as above; type: in vivo, Crj-CD male rats; set-up: key: -: No significant lesions; ±: Minimal; +: Light; ++: Moderate; +++: Marked; settings: 50 mg per kg continuous intravenous injection, examination 6 hours after ventrotomy, individual rats
Experimental: as §1

[6] = tested on: increased vascular permeability induced by acetic acid; assay: Inhibitory activity on increased vascular permeability induced by acetic acid (Mouse Whittle method, method C); type: in vivo, ddy male mice; settings: dose 20 mg/kg orally, amount of leaked dye
Experimental: Using ddy male mice, each test group consisted of 4 or 5 mice. A test compound was mixed with Tween 80 [polyoxyethylenesorbitan monooleate (manufactured by Nacalai Tesque K.K.)], and distilled water was added thereto to obtain a 2% Tween 80 suspension, or it was dissolved in the form of a salt in water to obtain an aqueous solution. A test compound was orally administered, and upon expiration of one hour from the administration, 0.7% acetic acid was intraperitonially injected to each mouse in an amount of 0.1 ml/10 g, and at the same time, 2% brilliant blue was intravenously injected into the tail vein in an amount of 0.1 ml/20 g. Thirty minutes after the injection of brilliant blue, the cervical vertebrae were dislocated under anesthesia by chloroform, and the abdorminal cavity was washed with 5 ml of a physiological saline. The washing solution was subjected to centrifugal separation at 3,000 rpm for 10 minutes, and the amount of the dye in the supernatant was measured at 600 nm absorbance by Microplate ELISA Reader (Model 2550EIA Reader, manufactured by Bio-Rad Laboratories). The inhibition rate of the amount of leaked dye in the group in which a test compound was administered relative to the control group was obtained by the following formula. Inhibition rate (%) = (l -(C)/(D)) x 100 [formula] • C: Amount of leaked dye in the group to which a test compound was administered. • D: Amount of leaked dye in the control group.

[7] = tested on: experimental acute pancreatitis model; assay: Effects against acute pancreatitis (Test Example 8, closed duodenal loop method, lesion scores); type: in vivo, Crj-CD male rats; settings: sodium salt, 6 hours after ventrotomy; for inhibition in vivo at 10 mg/kg: Rattus norvegicus, 10 mg/kg single intravenous injection
In short: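 Closed duodenal loop pancreatitis in male Crj-CD rats (n=3) under halothane/nitrous oxide; sodium-salt compounds given i.v. into tail vein by continuous infusion or bolus, controls untreated. At 6 h, four pancreatic lesions scored 0-3; inhibition % of total and hemorrhagic scores calculated versus control.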

[8] = tested on: increased vascular permeability induced by acetic acid; assay: Inhibitory activity on increased vascular permeability induced by acetic acid (Rat Whittle method, method D); type: in vivo, SD (Crj: CD) male rats; settings: amount of leaked dye
Experimental: Using SD (Crj: CD) male rats, each test group consisted of from 3 to 5 rats. A test compound was mixed with Tween 80 [polyoxyethylenesorbitan monooleate (manufactured by Nacalai Tesque K.K.)], and distilled water was added thereto to obtain a 2% Tween 80 suspension, or it was dissolved in the form of a salt in water to obtain an aqueous solution. A test compound was orally administered, and one hour later, 0.7% acetic acid was intraperitonially injected to each rat in an amount of 0.05 ml/10 g, and at the same time, 2% brilliant blue was intravenously injected into the tail vein in an amount of 0.05 ml/20 g. Thirty minutes after the injection of brilliant blue, the cervical vertebrae were dislocated under anesthesia by chloroform, and the abdorminal cavity was washed with 10 ml of a physiological saline. The washing solution was subjected to centrifugal separation at 3,000 rpm for 10 minutes, and the amount of the dye in the supernatant was measured at 600 nm absorbance by Microplate ELISA Reader (Model 2550EIA Reader, manufactured by Bio-Rad Laboratories). The inhibition rate of the amount of leaked dye in the group to which a test compound was administered relative to the control group was obtained from the following formula, and the results are shown in Table 9. Inhibition rate (%) = (l -(C)/(D)) x 100 [formula] • C: Amount of leaked dye in the group to which a test compound was administered. • D: Amount of leaked dye in the control group.

[9] = po, 3 h, read-out: Inhibition rate (%)
[10] = read-out: Inhibition rate of hemorrhagic lesions (%)
[11] = read-out: Inhibition rate of pancreatitis lesions (%)

SMILES	inhibition at 1000 ppm [2]	LD50 at 168 h [3]	Inhibition rate (%) [6]	Inhibition rate (%) ([8]; dose 25 mg/kg orally)	inhibition in vivo at 10 mg/kg [7, 10]	inhibition in vivo at 10 mg/kg [7, 11]	Inhibition rate (%) (carrageenin edema)	Inhibition rate (%) ([8]; dose 50 mg/kg orally)	further results
CCS(=O)(=O)Nc1ncc(C(F)(F)F)cc1NC(=O)C(F)(F)C(F)(F)F [Compound No. 19, N-(2-ethylsulfonylamino-5-trifluoromethyl-3-pyridyl)pentafluoropropionamide]	75%	50 to 100 mg/kg							inhibition at 1000 ppm [1]: > 90%; inhibition in vivo at 100 mg/kg (carrageenin edema; [9]): 31%; Pancreatic edema Distribution [4]: + (2×) and ††; Pancreatic edema Grade [4]: + (2×) and ††; Pancreatic hemorrhage Petechia Grade [4]: -; Pancreatic hemorrhage Petechia Distribution [5]: -
CS(=O)(=O)Nc1ncc(C(F)(F)F)cc1NC(=O)c1ccccc1F [compound 57]		83 mg/kg	43%						inhibition at 1000 ppm [1]: 57%; inhibition in vivo at 100 mg/kg (carrageenin edema; [9]): 35%; Inhibition rate of hemorrhagic lesions (%) ([7]; 20 mg/kg continuous intravenous injection): 60%
CS(=O)(=O)Nc1ncc(C(F)(F)F)cc1NC(=O)c1cccc(C(F)(F)F)c1 [compound 80]	73%	> 80 mg/kg		33%	11%	8%	29%		
CCS(=O)(=O)Nc1ncc(C(F)(F)F)cc1NC(=O)c1ccco1 [compound 101]			46%				24%	41%	
CN(C)S(=O)(=O)Nc1ncc(C(F)(F)F)cc1NC(=O)c1cccc(F)c1 [compound 113]	35%				41%	36%	26%	67%	
CS(=O)(=O)Nc1ncc(C(F)(F)F)cc1NC(=O)c1cccs1 [compound 120]		83 mg/kg	43%				27%	35%	Inhibition rate of hemorrhagic lesions (%) ([7]; 24 mg/kg continuous intravenous injection): 100%

The next lines start with results.

inhibition at 1000 ppm [2]	SMILES	LD50 at 168 h [3]	Inhibition rate (%) [6]	Inhibition rate (%) ([8]; dose 25 mg/kg orally)	inhibition in vivo at 10 mg/kg [7, 10]	inhibition in vivo at 10 mg/kg [7, 11]	Inhibition rate (%) (carrageenin edema)	Inhibition rate (%) ([8]; dose 50 mg/kg orally)	further results
73%	CS(=O)(=O)Nc1ncc(C(F)(F)F)cc1NC(=O)C=Cc1cccs1 [compound 72]			66%	62%	32%			inhibition in vivo at 25 mg/kg (carrageenin edema; po, 3 h, dose 25 mg/kg orally, read-out: Inhibition rate (%)): 21%
38%	CS(=O)(=O)Nc1ncc(C(F)(F)F)cc1NC(=O)c1ccncc1 [compound 82]			38%			19%		
65%	CCS(=O)(=O)Nc1ncc(C(F)(F)F)cc1NC(=O)c1cccc(F)c1 [compound 98]						45%	32%	
90%	CS(=O)(=O)Nc1ncc(C(F)(F)F)cc1NC(=O)OC1CCCCC1 [compound 121]								Inhibition rate (%) ([8]; dose 12.5 mg/kg orally): 31%

Reference: EP0465913B1, “Diaminotrifluoromethylpyrimidine derivatives, process for their production and phospholipase A2 inhibitor containing them” (ISHIHARA SANGYO KAISHA, LTD., priority 1990, dated 1992)
